ChEMBL document CHEMBL3044897, “Pharmacophore-based predictive model generation for potent antimalarials targeting haem detoxification pathway” (Med Chem Res, 2007)

Key:
[1] = tested on: Heme; test: Inhibition of heme polymerization in Plasmodium falciparum after 15 min by liquid scintillation counting analysis in presence of [14C]-hemin chloride
[2] = tested on: Plasmodium falciparum; test: Antimalarial activity against chloroquine-sensitive Plasmodium falciparum 3D7 assessed as incorporation of [3H]hypoxanthine after 48 hr microdilution method; format: functional, organism-based
[3] = tested on: Plasmodium falciparum; test: Antimalarial activity against chloroquine-resistant Plasmodium falciparum K1 assessed as incorporation of [3H]hypoxanthine after 48 hr microdilution method; format: functional, organism-based

Structure (SMILES)	IC50 [1] [µM]	IC50 [2] [µM]	IC50 [3] [µM]
CCN(CC)Cc1cc(Nc2ccncc2)ccc1O	72	0.68	
CCN(CC)Cc1cc(Nc2ccnc3cc(Cl)ccc23)cc(-c2ccc(Cl)cc2)c1O [TEBAQUINE]	53	0.0095	0.013
COc1ccc2nc3cc(Cl)ccc3c(Nc3cc(CN4CCCC4)c(O)c(CN4CCCC4)c3)c2n1 [PYRONARIDINE]	64	0.0057	0.0091
CCN(CC)Cc1cc(Nc2ccnc3cc(Cl)ccc23)cc(-c2ccc(Cl)cc2)c1 [DEHYDROXY TEBAQUINE]	51	0.042	
CCNCCCC(C)Nc1ccnc2cc(Cl)ccc12 (stereo unspecified) [DESETHYLCHLOROQUINE]	45	0.019	0.72
CCN(CC)CCCC(C)Nc1c2ccc(Cl)cc2nc2ccc(OC)cc12 (stereo unspecified) [QUINACRINE]	41	0.013	
CC(CCCN1CCCC1)Nc1ccnc2cc(Cl)ccc12 (stereo unspecified) [Chloroquine-pyrolidinyl]	44	0.019	
C=C[C@H]1CN2CC[C@H]1C[C@@H]2[C@@H](O)c1ccnc2ccc(OC)cc12 [QUINIDINE]	24	0.021	
CC(CCCN)Nc1ccnc2cc(Cl)ccc12 (stereo unspecified) [BIDESETHYL CHLOROQUINE]	58	0.055	
C=C[C@H]1CN2CC[C@H]1C[C@H]2[C@H](O)c1ccnc2ccc(OC)cc12 [QUININE]	65	0.034	
CCCCN(CCCC)CCC(O)c1cc2c(Cl)cc(Cl)cc2c2cc(C(F)(F)F)ccc12 (stereo unspecified) [HALOFANTRINE]	180	0.0058	0.0028
Oc1ccc(Nc2ccnc3cc(Cl)ccc23)cc1	19	1.4	
CCN(CC)CCCC(C)Nc1ccncc1 (stereo unspecified)	92	12	15
C=C[C@H]1CN2CC[C@H]1C[C@H]2[C@H](O)c1ccnc2ccccc12 [CINCHONIDINE]	27	0.04	0.091
Oc1ccc(Nc2ccnc3cc(Cl)ccc23)cc1CN1CCCC1 [AMOPYROQUINE]	30	0.0053	0.012
C=C[C@H]1CN2CC[C@H]1C[C@@H]2[C@@H](O)c1ccnc2ccccc12 [CINCHONINE]	23	0.021	0.056
O[C@@H](c1cc(C(F)(F)F)nc2c(C(F)(F)F)cccc12)[C@H]1CCCCN1 (relative stereo) [(S,R)-MEFLOQUINE]	47	0.023	0.0094
CCNCc1cc(Nc2ccnc3cc(Cl)ccc23)ccc1O [DESETHYL AMODIAQUINE]	43	0.0069	0.039
CCN(CC)CCCC(C)Nc1ccnc2cc(Cl)ccc12 (stereo unspecified) [CHLOROQUINE]	24		
CC(C)(C)NCc1cc(Nc2ccnc3cc(Cl)ccc23)ccc1O [N-TERT-BUTYL-AMODIAQUINE]	32	0.0055	0.0091
CCN(CC)Cc1cc(Nc2ccnc3cc(Cl)ccc23)ccc1O	15	0.0078	0.018
NCc1cc(Nc2ccnc3cc(Cl)ccc23)ccc1O [BIDESETHYL AMODIAQUINE]	73	0.021	0.17
